From patent US20230399341A1, “7-PHENYL SUBSTITUTED 2-AMINOQUINAZOLINE INHIBITORS OF HPK1” (MERCK SHARP & DOHME LLC, priority 2020, published 2023)

Biological target: T1, Human HPK1, catalytic domain (Homo sapiens, UniProt Q92918)
T1 sequence (Q92918 1-346): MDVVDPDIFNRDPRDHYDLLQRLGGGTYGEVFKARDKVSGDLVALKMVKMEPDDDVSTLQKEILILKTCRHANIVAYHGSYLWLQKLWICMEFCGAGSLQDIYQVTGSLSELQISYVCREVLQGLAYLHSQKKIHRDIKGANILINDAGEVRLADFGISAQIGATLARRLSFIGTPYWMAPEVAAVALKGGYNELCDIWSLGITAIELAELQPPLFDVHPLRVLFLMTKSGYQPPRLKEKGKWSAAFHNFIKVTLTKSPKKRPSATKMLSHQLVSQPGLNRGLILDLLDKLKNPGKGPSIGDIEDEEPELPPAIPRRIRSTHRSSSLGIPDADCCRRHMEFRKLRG
Assay: HPK1-SLP76 TR-FRET Assay
Format: biochemical
Conditions: 75 pM HPK1, ATP 10 uM, SLP76 10 nM, 30 min pre-incubation, 60 min reaction

| SMILES | IC50 |
| --- | --- |
| Cc1c(-c2cc3nc(Nc4cccc(S(=O)(=O)NC(C)(C)C)c4)ncc3c(N)c2F)cnc2c1NCCO2 [Compound 2-33, 3-{[5-amino-6-fluoro-7-(8-methyl-2,3-dihydro-1H-pyrido[2,3-b][1,4]oxazin-7-yl)quinazolin-2-yl]amino}-N-tert-butylbenzene-1-sulfonamide] | 0.186 nM |
| COc1cc2c(cc1Nc1ncc3ccc(-c4cccc(C#N)c4)cc3n1)CNCC2 [Compound 1-65, 3-{2-[(6-methoxy-1,2,3,4-tetrahydroisoquinolin-7-yl)amino]quinazolin-7-yl}benzonitrile] | 120 nM |
| COc1cc2c(cc1Nc1ncc3ccc(-c4ccc(-n5cccn5)nc4)cc3n1)CN(C)CC2 [Compound 1-107, N-(6-methoxy-2-methyl-1,2,3,4-tetrahydroisoquinolin-7-yl)-7-[6-(1H-pyrazol-1-yl)pyridin-3-yl]quinazolin-2-amine] | 488 nM |
| COc1cc(C2CCN(C)C2=O)ccc1Nc1ncc2c(N)c(F)c(-c3cnc4c(c3C)NCCO4)cc2n1 (single isomer, unassigned) [Compound 2-54, (R or S)-3-(4-{[5-amino-6-fluoro-7-(8-methyl-2,3-dihydro-1H-pyrido[2,3-b][1,4]oxazin-7-yl)quinazolin-2-yl]amino}-3-methoxyphenyl)-1-methylpyrrolidin-2-one] | 0.0784 nM |
| Cc1c(-c2cc3nc(Nc4ccc(CS(C)(=O)=O)cc4)ncc3c(N)c2F)cnc2c1NCC(C)(C)O2 [Compound 2-165, 6-fluoro-N~2~-{4-[(methylsulfonyl)methyl]phenyl}-7-(3,3,8-trimethyl-2,3-dihydro-1H-pyrido[2,3-b][1,4]oxazin-7-yl)quinazoline-2,5-diamine] | 0.103 nM |
| COc1cc2c(cc1Nc1ncc3ccc(NCc4noc(C)n4)cc3n1)CN(C)CC2 [Compound 3-52, N~2~-(6-methoxy-2-methyl-1,2,3,4-tetrahydroisoquinolin-7-yl)-N~7~-[(5-methyl-1,2,4-oxadiazol-3-yl)methyl]quinaz-oline-2,7-diamine] | 97.9 nM |
| COc1cc2c(cc1Nc1ncc3ccc(-c4cnn(CC(C)O)c4)cc3n1)CN(C)CC2 (racemic) [Compound 1-102, (R and S)-1-(4-{2-[(6-methoxy-2-methyl-1,2,3,4-tetrahydroisoquinolin-7-yl)amino]quinazolin-7-yl}-1H-pyrazol-1-yl)propan-2-ol] | 22.2 nM |
| COc1cc2c(cc1Nc1ncc3ccc(N4CCN(C5CC5)C(=O)C4)cc3n1)CN(C)CC2 [Compound 3-73, 1-cyclopropyl-4-{2-[(6-methoxy-2-methyl-1,2,3,4-tetrahydroiso-quinolin-7-yl)amino]quinazolin-7-yl}piperazin-2-one] | 719 nM |
| COC1CC(NC(=O)c2ccc(Nc3ncc4c(N)c(F)c(-c5cnc6c(c5C)NCCO6)cc4n3)cc2)C1 (stereo not drawn) [Compound 2-58, 4-{[5-amino-6-fluoro-7-(8-methyl-2,3-dihydro-1H-pyrido[2,3-b][1,4]oxazin-7-yl)quinazolin-2-yl]amino}-N-(3-methoxycyclobutyl) benzamide] | 0.0791 nM |
| Cc1c(-c2c(F)c(N)c3cnc(Nc4ccc5c(c4)CN(C(C)C)CC5)nc3c2Cl)cnc2c1NCCO2 [Compound 2-112, 8-chloro-6-fluoro-N2-(2-isopropyl-1,2,3,4-tetrahydroisoquinolin-7-yl)-7-(8-methyl-2,3-dihydro-1H-pyrido[2,3-b][1,4]oxazin-7-yl)quinazoline-2,5-diamine] | 0.816 nM |
| Cc1c(-c2cc3nc(Nc4ccc(CS(C)(=O)=O)nc4)ncc3c(N)c2F)cnc2c1NCCO2 [Compound 2-84, 6-fluoro-7-(8-methyl-2,3-dihydro-1H-pyrido[2,3-b][1,4]oxazin-7-yl)-N2-(6-((methylsulfonyl)methyl)pyridin-3-yl)quinazoline-2,5-diamine] | 0.0222 nM |
| Cc1c(-c2cc3nc(Nc4ccc(CS(C)(=O)=O)cc4)ncc3c(N)c2F)cnc2c1NCCO2 [Compound 2-24, 6-fluoro-7-(8-methyl-2,3-dihydro-1H-pyrido[2,3-b][1,4]oxazin-7-yl)-N˜2˜-{4-[(methylsulfonyl)methyl]phenyl}quinazoline-2,5-diamine] | 0.0508 nM |
| Cc1c(-c2cc3nc(Nc4ccc5c(c4)CN(C)C(C)C5)ncc3c(N)c2F)cnc2c1NCCO2 (single isomer, unassigned) [Compound 2-85, (R or S)—N2-(2,3-dimethyl-1,2,3,4-tetrahydroisoquinolin-7-yl)-6-fluoro-7-(8-methyl-2,3-dihydro-1H-pyrido[2,3-b][1,4]oxazin-7-yl)quinazoline-2,5-diamine] | 0.0328 nM |
| Cc1c(-c2cc3nc(Nc4ccc(C5CCN(C)C5=O)cc4)ncc3c(N)c2F)cnc2c1NCCO2 (single isomer, unassigned) [Compound 2-146, (R or S)-3-(4-{[5-amino-6-fluoro-7-(8-methyl-2,3-dihydro-1H-pyrido[2,3-b][1,4]oxazin-7-yl)quinazolin-2-ylamino}phenyl)-1-methylpyrrolidin-2-one] | 0.0505 nM |
| Cc1c(-c2cc3nc(Nc4ccc(CC(=O)N5CCOCC5)cc4)ncc3cc2F)cnc2c1NCCO2 [Compound 1-133, 2-(4-{[6-fluoro-7-(8-methyl-2,3-dihydro-1H-pyrido[2,3-b][1,4]oxazin-7-yl)quinazolin-2-yl]amino}phenyl)-1-(morpholin-4-yl)ethan-1-one] | 0.0835 nM |
| COc1cc2c(cc1Nc1ncc3ccc(-c4cccc(N)c4)cc3n1)CNCC2 [Compound 1-58, 7-(3-aminophenyl)-N-(6-methoxy-1,2,3,4-tetrahydroisoquinolin-7-yl)quinazolin-2-amine] | 76.2 nM |
| COc1cc2c(cc1Nc1ncc3c(N)c(F)c(-c4cnc(-c5ncco5)cc4C)cc3n1)CN(C)CC2 [Compound 2-61, 6-fluoro-N~2~-(6-methoxy-2-methyl-1,2,3,4-tetrahydroisoquinolin-7-yl)-7-[4-methyl-6-(1,3-oxazol-2-yl)pyridin-3-yl]quinazoline-2,5-diamine] | 1.27 nM |
| COc1cc2c(cc1Nc1ncc3ccc(-c4cnc5c(C#N)cnn5c4)cc3n1)CN(C)CC2 [Compound 1-22, 6-{2-[(6-methoxy-2-methyl-1,2,3,4-tetrahydroisoquinolin-7-yl)amino]quinazolin-7-yl}pyrazolo[1,5-a]pyrimidine-3-carbonitrile] | 735 nM |
| COc1cc2c(cc1Nc1ncc3ccc(N4CC5(CCCNCC5)OC4=O)cc3n1)CN(C)CC2 (racemic) [Compound 3-8, (S and R)-3-{2-[(6-methoxy-2-methyl-1,2,3,4-tetrahydroiso-quinolin-7-yl)amino]quinazolin-7-yl}-1-oxa-3,8-diazaspiro[4.6]-undecan-2-one] | 92.6 nM |
| CNC(=O)C1(c2ccc(Nc3ncc4cc(F)c(-c5cnc6c(c5C)NCCO6)cc4n3)cc2)CCCC1 [Compound 1-120, 1-(4-{[6-fluoro-7-(8-methyl-2,3-dihydro-1H-pyrido[2,3-b][1,4]oxazin-7-yl)quinazolin-2-yl]amino}phenyl)-N-methylcyclopentane-1-carboxamide] | 0.595 nM |
| CCC1COC(=O)N1c1cc(N)c2cnc(Nc3cc4c(cc3OC)CCN(C)C4)nc2c1 (single isomer, unassigned) [Compound 3-15, (S or R)-3-{5-amino-2-[(6-methoxy-2-methyl-1,2,3,4-tetrahydroisoquinolin-7-yl)amino]quinazolin-7-yl}-4-ethyl-1,3-oxazolidin-2-one] | 3.24 nM |
